Results as given in patent US7001756B1, “Microorganism strain of GM-020 of Lactobacillus rhamnosus and its use for treating obesity” (GenMont Biotech Inc., priority 2004, dated 2006).

Tests used:
[1] = Obesity model: body weight of ICR mice on high energy diet; type: in vivo; conditions: GM-020 10^9 CFU/mL or PPA 4.875 mg each time, twice a day
Protocol: (§1) Food and water were supplemented sufficiently. The mice were divided into two groups. […] The mice's body weights were measured every week.
(§2) The treatments were administrated twice a day.
Body weight difference: After treated for 4 weeks, blood samples were collected from the tails for biochemical assay.

[2] = Obesity model: lipid tissue weight around the testicle and the kidney; type: in vivo, ICR mice; conditions: after 4 weeks treatment; GM-020 10^9 CFU/mL or PPA 4.875 mg each time, twice a day
Protocol: as §1, §2
Differences of lipid tissue weight around the testicle: The mice were sacrificed, and the lipid tissues around the testicle were taken and weighted.
Differences of lipid tissue weight around the kidney: The mice were sacrificed, and the lipid tissues around the kidney were taken and weighted.

[3] = Obesity model: serum concentration of fat metabolites; type: in vivo, ICR mice; conditions: 4 weeks treatment, GM-020 10^9 CFU/mL or PPA 4.875 mg each time, twice a day
Protocol: as §1, §2
Serum concentration of fat metabolites: Blood samples were collected from the tails for biochemical assay. The blood samples were stayed at room temperature for 1 hour and centrifuged at 2,500 rpm for 10 minutes. The upper layer of serum was taken for assay.
The concentration of triacylglycol (TG) of each group was assayed with TRI[…] LIQUID REAGENT™ (ASK®, Taiwan) and the absorption was measured with Autoanalyzer Hitachi™ 7150. The concentration of total cholesterol (CHOL) was assayed with C[…] REAGENT™ (ASK®, Taiwan), and the absorption was measured with Autoanalyzer Hitachi™ 7150.

[4] = Obesity model: liver concentration of fat metabolites; type: in vivo, ICR mice; conditions: right lobe of liver; 4 weeks treatment; GM-020 10^9 CFU/mL or PPA 4.875 mg each time, twice a day
Protocol: as §1, §2
Liver concentration of fat metabolites: The mice were sacrificed, and the right lobe of liver was taken. The fat was extract according to the conventional method.
For each sample, the concentration of triacylglycol (TG) and total cholesterol (CHOL) were assayed as mentioned above.

[5] = Liver and kidney function assays (serum GOT, GPT, creatinine, uric acid); conditions: 4 weeks treatment, GM-020 10^9 CFU/mL or PPA 4.875 mg each time, twice a day
Protocol: Animal model: Male ICR mice were purchased from National Laboratory Animal Center in Taiwan and raised alone in light for 12 hours and in dark for 12 hours at a temperature of 25±1° C. and a humidity of 60±5%. Food and water were supplemented sufficiently. The mice were divided into two groups. One was normal control group and the other was high energy group. The normal control group was fed with normal diet, and the high energy group was fed with high energy diet containing 48% dry feeding stuff, 8% corn oil and 44% condensed milk. The mice's body weights were measured every week. The high energy group was further divided into groups as listed below according treatment: (a) 1× of wood ear, (b) 1× of wood ear combined with GM-020, (c) GM-020, (d) 10× of wood ear, (e) 10× of wood ear combined with GM-020, (f) negative control treated with normal saline, and (g) positive control treated with PPA.
Treatment with GM-020 and/or wood ear: The normal control group was fed with normal diet continuously. The treatments were administrated twice a day. The dosage of PPA was 4.875 mg each time. In the meal of 1× of wood ear, there was 15.6 mg of wood ear in 3 g diet, and in the meal of 10× of wood ear, there is 156 mg of wood ear in 3 g diet. The dosage of GM-020 was 10^9 CFU/mL.
Liver and kidney function assays: The blood samples were treated as described above.
For each sample, the concentration of creatinine was assayed according to Jaffe Reaction method (Unichem®, Japan) and the absorption was measured with Autoanalyzer Hitachi™ 7150. The concentration of GOT was assayed with GOT (ASAT) IFCC mod™. (HUMAN®, Germany) and the absorption was measured with Autoanalyzer Hitachi™ 7150. The concentration of GPT was assayed with GPT (ALAT) IFCC mod™. (HUMAN®, Germany) and the absorption was measured with Autoanalyzer Hitachi™ 7150. The concentration of uric acid (UA) was assayed according to uricase-peroxidase method (Unichem®, Japan) and the absorption was measured with Autoanalyzer Hitachi™ 7150.
The data were analyzed with Kruskal Wallis H Test, and that of the normal control group was taken as a baseline for Dunnett Test.

CC(N)C(O)c1ccccc1 (centres unmarked) [Positive Control, phenylpropanolamine]
body weight compared with the negative control group ([1]; after 2 weeks): significant decrease
body weight compared with the negative control group ([1]; after 3 weeks): significant decrease
lipid tissue weight around the kidney compared with the negative control group [2]: little difference
lipid tissue weight around the testicle compared with the negative control group [2]: significant decrease
CHOL (serum concentration of total cholesterol) [3]: 219.08 ± 11.22
HDL (serum concentration of HDL-C) [3]: 123.19 ± 4.20
LDL (serum concentration of LDL-C) [3]: 10.04 ± 0.93
TG (serum concentration of triacylglycol) [3]: 75.83 ± 9.93
CHOL (liver concentration of total cholesterol) [4]: 26.75 ± 1.48
TG (liver concentration of triacylglycol) [4]: 103.58 ± 11.41
Creatinine [5]: 0.56 ± 0.03
GOT [5]: 117.50 ± 12.95
GPT [5]: 47.00 ± 6.17
UA (uric acid) [5]: 2.42 ± 0.50
